The source of these data is ChEMBL document CHEMBL5291721, “A preclinical secondary pharmacology resource illuminates target-adverse drug reaction associations of marketed drugs” (Nat Commun, 2023).

By AC50 is commonly meant the concentration at which the activity in the assay is half-maximal. A high value points to activity only at high concentration.

Targets include Melanocortin receptor 3 (Homo sapiens, UniProt P41968); Motilin receptor (Homo sapiens, UniProt O43193); D(3) dopamine receptor (Homo sapiens, UniProt P35462).
For another experiment, the target named is T1, Adenosine receptor A1 (Homo sapiens, UniProt P30542).
T1 sequence (P30542 whole entry): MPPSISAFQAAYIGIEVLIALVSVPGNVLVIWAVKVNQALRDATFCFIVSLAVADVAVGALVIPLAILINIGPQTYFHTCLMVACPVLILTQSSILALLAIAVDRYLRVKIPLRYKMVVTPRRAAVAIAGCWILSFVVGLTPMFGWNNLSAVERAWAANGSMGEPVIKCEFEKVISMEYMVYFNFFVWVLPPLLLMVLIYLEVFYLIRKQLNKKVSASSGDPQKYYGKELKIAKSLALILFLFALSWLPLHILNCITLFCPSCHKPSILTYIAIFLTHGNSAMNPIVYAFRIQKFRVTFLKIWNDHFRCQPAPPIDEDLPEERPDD

A further experiment concerns the target T2, Adenosine receptor A3 (Homo sapiens, UniProt P0DMS8).
T2 sequence (P0DMS8 whole entry): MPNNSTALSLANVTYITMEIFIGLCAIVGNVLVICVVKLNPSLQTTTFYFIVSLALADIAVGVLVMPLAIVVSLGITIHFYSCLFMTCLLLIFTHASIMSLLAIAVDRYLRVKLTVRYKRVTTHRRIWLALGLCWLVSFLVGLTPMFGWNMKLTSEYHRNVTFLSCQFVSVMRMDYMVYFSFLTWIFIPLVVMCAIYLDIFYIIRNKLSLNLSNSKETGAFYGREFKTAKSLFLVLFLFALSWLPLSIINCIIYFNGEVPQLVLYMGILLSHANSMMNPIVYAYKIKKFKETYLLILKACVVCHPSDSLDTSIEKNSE

The target of experiment [1] is T3, Type-1 angiotensin II receptor (Homo sapiens, UniProt P30556).
T3 sequence (P30556 whole entry): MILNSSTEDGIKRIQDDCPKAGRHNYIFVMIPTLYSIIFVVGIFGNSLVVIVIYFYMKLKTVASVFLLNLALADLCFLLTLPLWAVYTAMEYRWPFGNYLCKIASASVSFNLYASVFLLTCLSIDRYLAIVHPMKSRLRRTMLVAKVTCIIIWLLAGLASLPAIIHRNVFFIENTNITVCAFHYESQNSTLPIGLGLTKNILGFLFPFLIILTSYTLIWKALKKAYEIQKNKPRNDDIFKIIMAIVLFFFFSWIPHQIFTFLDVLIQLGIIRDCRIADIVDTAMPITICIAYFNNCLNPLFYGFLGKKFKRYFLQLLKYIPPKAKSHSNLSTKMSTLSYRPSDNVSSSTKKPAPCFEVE

In experiment [2] the target is Neuronal acetylcholine receptor subunit alpha-4 (Homo sapiens, UniProt P43681).
Experiment [3] addresses Growth hormone secretagogue receptor type 1 (Homo sapiens, UniProt Q92847).
In experiment [4] the target is T4, 5-hydroxytryptamine receptor 1A (Homo sapiens, UniProt P08908).
T4 sequence (P08908 whole entry): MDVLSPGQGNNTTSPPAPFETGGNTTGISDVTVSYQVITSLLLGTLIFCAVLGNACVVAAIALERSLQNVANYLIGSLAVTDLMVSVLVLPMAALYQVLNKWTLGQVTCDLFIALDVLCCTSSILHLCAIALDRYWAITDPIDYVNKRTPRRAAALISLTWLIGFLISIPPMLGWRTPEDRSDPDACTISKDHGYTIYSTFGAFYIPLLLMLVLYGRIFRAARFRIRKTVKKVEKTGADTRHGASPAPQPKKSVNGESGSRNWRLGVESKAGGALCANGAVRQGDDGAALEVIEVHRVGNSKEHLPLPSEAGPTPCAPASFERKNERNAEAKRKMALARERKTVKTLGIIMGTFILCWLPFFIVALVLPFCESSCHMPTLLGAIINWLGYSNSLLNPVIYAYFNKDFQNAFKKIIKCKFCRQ
It is filed as functional, cell-based.

For experiment [5], the target named is 5-hydroxytryptamine receptor 2B (Homo sapiens, UniProt P41595). It is filed as functional, cell-based.
Experiment [6] addresses T5, 5-hydroxytryptamine receptor 2C (Homo sapiens, UniProt P28335).
T5 sequence (P28335 whole entry): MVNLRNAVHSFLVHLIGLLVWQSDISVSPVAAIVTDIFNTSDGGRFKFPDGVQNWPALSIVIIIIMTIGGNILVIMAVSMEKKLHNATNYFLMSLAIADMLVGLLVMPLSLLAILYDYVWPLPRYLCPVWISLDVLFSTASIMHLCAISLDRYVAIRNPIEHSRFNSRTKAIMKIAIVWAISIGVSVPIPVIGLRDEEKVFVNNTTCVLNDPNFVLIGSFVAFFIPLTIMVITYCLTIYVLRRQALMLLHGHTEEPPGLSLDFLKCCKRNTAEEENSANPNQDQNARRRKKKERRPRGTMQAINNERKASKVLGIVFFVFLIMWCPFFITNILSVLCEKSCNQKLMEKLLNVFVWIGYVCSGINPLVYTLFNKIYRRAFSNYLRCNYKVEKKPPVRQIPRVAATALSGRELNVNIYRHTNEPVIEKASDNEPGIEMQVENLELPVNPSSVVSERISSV

The target of experiment [7] is 3',5'-cyclic-AMP phosphodiesterase 4D (Homo sapiens, UniProt Q08499). It is filed as functional.
Experiment [8] concerns the target T6, Equilibrative nucleoside transporter 1 (Homo sapiens, UniProt Q99808).
T6 sequence (Q99808 whole entry): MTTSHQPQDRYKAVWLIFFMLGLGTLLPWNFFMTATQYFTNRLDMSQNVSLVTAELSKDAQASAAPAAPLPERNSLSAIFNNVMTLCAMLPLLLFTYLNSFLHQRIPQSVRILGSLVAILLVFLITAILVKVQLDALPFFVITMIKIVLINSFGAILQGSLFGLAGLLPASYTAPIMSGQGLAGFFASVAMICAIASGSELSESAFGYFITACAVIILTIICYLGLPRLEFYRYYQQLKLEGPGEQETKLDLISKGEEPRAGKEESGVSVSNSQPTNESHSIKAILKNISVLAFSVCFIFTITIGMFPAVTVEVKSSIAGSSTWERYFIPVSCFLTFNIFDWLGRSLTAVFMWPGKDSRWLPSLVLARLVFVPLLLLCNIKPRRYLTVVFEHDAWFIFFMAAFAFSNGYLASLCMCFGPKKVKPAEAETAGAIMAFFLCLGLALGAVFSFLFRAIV

In experiment [9] the target is Sodium-dependent noradrenaline transporter (Homo sapiens, UniProt P23975).

Bounds are passed on as bounds.
Also: assay procedure not described here.

Sequence of Growth hormone secretagogue receptor type 1 (Q92847 whole entry): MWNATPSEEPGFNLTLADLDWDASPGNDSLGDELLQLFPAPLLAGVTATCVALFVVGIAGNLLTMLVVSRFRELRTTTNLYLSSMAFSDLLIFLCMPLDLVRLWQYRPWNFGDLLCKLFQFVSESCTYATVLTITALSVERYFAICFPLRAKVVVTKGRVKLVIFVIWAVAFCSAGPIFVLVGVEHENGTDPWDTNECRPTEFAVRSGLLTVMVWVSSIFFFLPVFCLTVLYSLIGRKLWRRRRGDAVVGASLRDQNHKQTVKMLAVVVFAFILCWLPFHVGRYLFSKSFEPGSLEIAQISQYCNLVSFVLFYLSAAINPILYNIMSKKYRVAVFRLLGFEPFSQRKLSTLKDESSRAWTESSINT
Sequence of 5-hydroxytryptamine receptor 2B (P41595 whole entry): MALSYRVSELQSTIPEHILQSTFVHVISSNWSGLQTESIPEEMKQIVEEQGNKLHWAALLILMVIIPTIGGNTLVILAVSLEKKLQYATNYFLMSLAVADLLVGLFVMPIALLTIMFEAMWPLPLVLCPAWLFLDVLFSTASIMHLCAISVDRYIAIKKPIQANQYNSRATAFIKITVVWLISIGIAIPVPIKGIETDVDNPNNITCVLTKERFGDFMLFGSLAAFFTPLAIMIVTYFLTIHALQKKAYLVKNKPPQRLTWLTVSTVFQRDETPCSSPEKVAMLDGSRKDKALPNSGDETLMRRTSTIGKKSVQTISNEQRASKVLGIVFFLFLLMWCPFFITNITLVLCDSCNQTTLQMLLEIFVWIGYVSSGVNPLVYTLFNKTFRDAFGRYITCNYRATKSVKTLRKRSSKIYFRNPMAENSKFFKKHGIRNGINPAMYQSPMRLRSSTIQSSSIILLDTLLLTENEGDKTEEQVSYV
Sequence of D(3) dopamine receptor (P35462 whole entry): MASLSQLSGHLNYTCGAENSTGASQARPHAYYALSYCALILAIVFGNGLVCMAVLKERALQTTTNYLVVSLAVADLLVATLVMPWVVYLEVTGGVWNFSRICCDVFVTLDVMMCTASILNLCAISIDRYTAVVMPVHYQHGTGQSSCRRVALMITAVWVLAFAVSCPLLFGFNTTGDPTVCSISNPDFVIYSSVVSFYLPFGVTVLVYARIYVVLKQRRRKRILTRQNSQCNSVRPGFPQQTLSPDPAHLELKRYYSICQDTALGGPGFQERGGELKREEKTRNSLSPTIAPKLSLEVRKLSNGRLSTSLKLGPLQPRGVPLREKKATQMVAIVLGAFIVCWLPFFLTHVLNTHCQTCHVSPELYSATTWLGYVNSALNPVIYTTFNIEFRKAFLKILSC
Sequence of 3',5'-cyclic-AMP phosphodiesterase 4D (Q08499 whole entry): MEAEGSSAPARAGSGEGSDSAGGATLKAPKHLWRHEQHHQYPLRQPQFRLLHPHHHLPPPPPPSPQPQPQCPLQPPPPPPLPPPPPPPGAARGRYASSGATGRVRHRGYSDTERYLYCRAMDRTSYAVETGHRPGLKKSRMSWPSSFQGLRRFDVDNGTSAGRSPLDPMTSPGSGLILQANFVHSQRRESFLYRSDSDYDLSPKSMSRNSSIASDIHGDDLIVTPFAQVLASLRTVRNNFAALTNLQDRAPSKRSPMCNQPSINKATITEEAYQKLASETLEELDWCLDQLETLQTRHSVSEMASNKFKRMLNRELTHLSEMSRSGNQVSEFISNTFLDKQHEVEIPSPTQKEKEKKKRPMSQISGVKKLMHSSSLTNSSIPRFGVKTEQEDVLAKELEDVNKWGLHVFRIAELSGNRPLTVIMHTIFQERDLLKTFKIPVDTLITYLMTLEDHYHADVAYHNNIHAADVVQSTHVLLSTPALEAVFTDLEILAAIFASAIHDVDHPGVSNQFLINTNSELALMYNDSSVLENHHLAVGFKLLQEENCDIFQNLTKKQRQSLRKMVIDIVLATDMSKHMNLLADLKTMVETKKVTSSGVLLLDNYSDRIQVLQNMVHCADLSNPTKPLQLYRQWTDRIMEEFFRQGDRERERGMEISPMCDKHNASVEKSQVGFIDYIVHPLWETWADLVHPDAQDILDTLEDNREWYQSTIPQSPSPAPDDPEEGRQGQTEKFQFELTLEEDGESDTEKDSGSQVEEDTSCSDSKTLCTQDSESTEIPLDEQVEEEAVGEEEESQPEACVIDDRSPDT
Sequence of Neuronal acetylcholine receptor subunit alpha-4 (P43681 whole entry): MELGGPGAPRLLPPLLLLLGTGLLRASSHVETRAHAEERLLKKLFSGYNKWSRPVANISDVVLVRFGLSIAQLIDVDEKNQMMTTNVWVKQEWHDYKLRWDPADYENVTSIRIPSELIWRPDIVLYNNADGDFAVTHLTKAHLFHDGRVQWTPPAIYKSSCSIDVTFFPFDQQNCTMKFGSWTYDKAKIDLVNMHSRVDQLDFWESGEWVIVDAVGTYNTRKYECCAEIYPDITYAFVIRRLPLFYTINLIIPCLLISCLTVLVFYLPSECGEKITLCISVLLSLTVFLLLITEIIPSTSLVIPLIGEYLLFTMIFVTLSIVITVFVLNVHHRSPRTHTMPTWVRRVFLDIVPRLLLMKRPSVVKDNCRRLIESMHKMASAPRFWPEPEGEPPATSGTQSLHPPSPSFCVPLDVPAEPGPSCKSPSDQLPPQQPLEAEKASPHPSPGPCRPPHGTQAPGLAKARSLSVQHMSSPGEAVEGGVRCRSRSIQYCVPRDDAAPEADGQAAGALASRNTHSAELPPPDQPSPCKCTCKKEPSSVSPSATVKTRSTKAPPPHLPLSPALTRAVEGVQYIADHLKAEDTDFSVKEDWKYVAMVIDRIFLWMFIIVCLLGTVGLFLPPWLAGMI
Sequence of Motilin receptor (O43193 whole entry): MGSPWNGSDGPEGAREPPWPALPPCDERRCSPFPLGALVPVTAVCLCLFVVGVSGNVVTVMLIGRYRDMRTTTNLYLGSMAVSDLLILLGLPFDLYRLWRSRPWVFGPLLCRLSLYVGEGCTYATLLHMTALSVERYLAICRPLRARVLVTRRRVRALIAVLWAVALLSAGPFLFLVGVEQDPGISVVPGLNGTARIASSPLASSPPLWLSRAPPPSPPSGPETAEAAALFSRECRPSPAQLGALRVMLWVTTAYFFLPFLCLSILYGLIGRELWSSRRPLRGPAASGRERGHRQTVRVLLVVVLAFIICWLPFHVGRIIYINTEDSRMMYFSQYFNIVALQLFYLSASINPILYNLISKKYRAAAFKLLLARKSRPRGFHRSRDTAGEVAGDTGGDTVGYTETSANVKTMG
Sequence of Sodium-dependent noradrenaline transporter (P23975 whole entry): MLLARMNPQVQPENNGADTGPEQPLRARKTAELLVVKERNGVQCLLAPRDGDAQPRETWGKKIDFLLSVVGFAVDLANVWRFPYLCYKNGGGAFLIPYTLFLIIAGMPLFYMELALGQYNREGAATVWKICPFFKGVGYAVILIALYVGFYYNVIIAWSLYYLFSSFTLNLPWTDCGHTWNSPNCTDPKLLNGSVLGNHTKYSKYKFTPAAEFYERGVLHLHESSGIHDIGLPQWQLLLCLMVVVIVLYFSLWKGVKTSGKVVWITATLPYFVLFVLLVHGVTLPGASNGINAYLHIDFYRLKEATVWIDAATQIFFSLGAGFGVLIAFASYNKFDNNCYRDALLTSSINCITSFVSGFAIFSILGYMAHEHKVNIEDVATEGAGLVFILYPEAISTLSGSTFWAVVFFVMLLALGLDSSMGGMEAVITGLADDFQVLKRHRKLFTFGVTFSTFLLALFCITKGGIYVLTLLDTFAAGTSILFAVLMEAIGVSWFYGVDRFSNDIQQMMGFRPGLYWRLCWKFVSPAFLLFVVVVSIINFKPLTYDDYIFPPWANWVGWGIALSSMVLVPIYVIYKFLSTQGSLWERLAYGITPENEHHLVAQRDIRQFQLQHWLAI
Sequence of Melanocortin receptor 3 (P41968 whole entry): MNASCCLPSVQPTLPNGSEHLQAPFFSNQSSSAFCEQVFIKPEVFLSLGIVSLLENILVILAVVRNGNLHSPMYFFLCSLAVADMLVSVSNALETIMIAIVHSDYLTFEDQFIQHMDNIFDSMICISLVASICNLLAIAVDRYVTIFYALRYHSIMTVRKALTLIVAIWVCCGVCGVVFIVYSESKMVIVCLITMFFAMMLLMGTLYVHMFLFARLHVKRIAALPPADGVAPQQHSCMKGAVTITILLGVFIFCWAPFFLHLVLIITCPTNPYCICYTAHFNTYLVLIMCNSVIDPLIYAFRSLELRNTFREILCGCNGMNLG

As for `CC(=O)Oc1ccccc1C(=O)O` [ASPIRIN], the half-maximal activity concentration (AC50) is greater than 30 µM at Adenosine receptor A1; greater than 30 µM at Adenosine receptor A3; greater than 30 µM in experiment [1]; greater than 10 µM in [2]; greater than 30 µM in experiment [3]; greater than 10 µM in experiment [4]. Further, the AC50 was greater than 10 µM in experiment [5]; greater than 30 µM in experiment [6]; greater than 30 µM on Melanocortin receptor 3; greater than 10 µM at Motilin receptor; greater than 30 µM in experiment [7]; greater than 30 µM in experiment [8]. The concentration at half-maximal activity (AC50) (in [9]; at D(3) dopamine receptor) was greater than 30 µM in each case.

`C[C@H](Nc1ncnc2[nH]cnc12)c1cc2cccc(Cl)c2c(=O)n1-c1ccccc1` [DUVELISIB]: the half-maximal activity concentration (AC50) (at Adenosine receptor A1; at Adenosine receptor A3; in experiment [1]; in [2]; in [3]; in experiment [4]) was greater than 30 µM in each case. The AC50 (in [5]; in experiment [6]; at Melanocortin receptor 3; on Motilin receptor; in [7]; in experiment [8]) was greater than 30 µM throughout. Moreover, the AC50 (in experiment [9]; at D(3) dopamine receptor) was greater than 30 µM each time.

For `N[C@@H](Cc1cc(I)c(Oc2cc(I)c(O)c(I)c2)c(I)c1)C(=O)O` [LEVOTHYROXINE], the half-maximal activity concentration (AC50) on Adenosine receptor A1 is greater than 30 µM; at Adenosine receptor A3 it was 11 µM; in experiment [1], greater than 30 µM; in experiment [2] it was greater than 30 µM; in experiment [3] it was greater than 30 µM; in [4] it was greater than 30 µM. The AC50 in [5] is greater than 30 µM; in experiment [6] it was greater than 30 µM; on Melanocortin receptor 3, greater than 30 µM; on Motilin receptor it was greater than 30 µM; in experiment [7], 1.8 µM; in experiment [8] it was greater than 30 µM. Besides, the half-maximal activity concentration (AC50) (in experiment [9]; at D(3) dopamine receptor) was greater than 30 µM throughout.

Consider `CCOC(=O)[C@H](CCc1ccccc1)N[C@@H](C)C(=O)N1Cc2ccccc2C[C@H]1C(=O)O`, for which the half-maximal activity concentration (AC50) on Adenosine receptor A1 was greater than 30 µM; at Adenosine receptor A3, greater than 30 µM; in experiment [1], greater than 30 µM; in experiment [2], greater than 10 µM; in experiment [3], greater than 30 µM; in experiment [4] it was greater than 10 µM. Further, the AC50 in experiment [5] was greater than 10 µM; in experiment [6] it was greater than 10 µM; on Melanocortin receptor 3 it was greater than 30 µM; on Motilin receptor, greater than 10 µM; in experiment [7], greater than 10 µM; in [8] it was greater than 30 µM. The concentration at half-maximal activity (AC50) (in [9]; at D(3) dopamine receptor) was greater than 10 µM each time.

In the case of `OCCOCCN1CCN(C(c2ccccc2)c2ccc(Cl)cc2)CC1` (stereo unspecified) [HYDROXYZINE], the AC50 was greater than 30 µM at Adenosine receptor A1; greater than 30 µM at Adenosine receptor A3; greater than 30 µM in experiment [1]; greater than 10 µM in [2]; greater than 30 µM in [3]; greater than 10 µM in [4]. The concentration at half-maximal activity (AC50) was greater than 10 µM in experiment [5]; greater than 30 µM in [6]; greater than 30 µM at Melanocortin receptor 3; greater than 10 µM on Motilin receptor; greater than 30 µM in experiment [7]; greater than 30 µM in experiment [8]. Besides, the half-maximal activity concentration (AC50) in experiment [9] was greater than 10 µM; on D(3) dopamine receptor it was 0.29 µM.

Take `CNC1(C)C2CCC(C2)C1(C)C` (stereo unspecified) [MECAMYLAMINE]: the AC50 (on Adenosine receptor A1; at Adenosine receptor A3; in experiment [1]; in experiment [2]; in experiment [3]; in [4]) was greater than 10 µM throughout. Moreover, the AC50 is greater than 10 µM in experiment [5]; greater than 30 µM in experiment [6]; greater than 10 µM at Melanocortin receptor 3; greater than 10 µM on Motilin receptor; greater than 30 µM in experiment [7]; greater than 10 µM in [8]. For the same compound, the AC50 is greater than 10 µM in experiment [9] and greater than 30 µM on D(3) dopamine receptor.

Regarding `CC(=O)SCC(Cc1ccccc1)C(=O)NCC(=O)OCc1ccccc1` (stereo unspecified) [RACECADOTRIL], the concentration at half-maximal activity (AC50) (at Adenosine receptor A1; at Adenosine receptor A3; in experiment [1]; in [2]; in [3]; in experiment [4]) was greater than 30 µM in each case. The half-maximal activity concentration (AC50) (in experiment [5]; in [6]; at Melanocortin receptor 3; at Motilin receptor; in experiment [7]; in [8]) was greater than 30 µM throughout. Also, the results for the concentration at half-maximal activity (AC50) (in [9]; at D(3) dopamine receptor) were greater than 10 µM and greater than 30 µM, respectively.

Regarding `CCOc1ccccc1OCCN[C@H](C)Cc1ccc(OC)c(S(N)(=O)=O)c1` [TAMSULOSIN], the AC50 is greater than 30 µM at Adenosine receptor A1; greater than 30 µM at Adenosine receptor A3; greater than 30 µM in [1]; greater than 10 µM in experiment [2]; greater than 30 µM in experiment [3]; greater than 10 µM in experiment [4]. For the same compound, the half-maximal activity concentration (AC50) is greater than 10 µM in experiment [5]; greater than 30 µM in [6]; greater than 30 µM at Melanocortin receptor 3; greater than 10 µM on Motilin receptor; greater than 30 µM in experiment [7]; greater than 30 µM in experiment [8]. For the same compound, the half-maximal activity concentration (AC50) was greater than 30 µM in experiment [9] and 0.0032 µM at D(3) dopamine receptor.

For the compound `CN(C)CCc1c[nH]c2ccc(CS(=O)(=O)N3CCCC3)cc12` [ALMOTRIPTAN], the AC50 on Adenosine receptor A1 was greater than 30 µM; on Adenosine receptor A3 it was greater than 30 µM; in experiment [1] it was greater than 30 µM; in experiment [2], greater than 30 µM; in experiment [3] it was greater than 30 µM; in experiment [4] it was 25 µM. Also, the AC50 in [5] is 11 µM; in [6] it was greater than 30 µM; at Melanocortin receptor 3, greater than 30 µM; at Motilin receptor, greater than 30 µM; in experiment [7], greater than 30 µM; in experiment [8] it was greater than 30 µM. In addition, the AC50 (in [9]; on D(3) dopamine receptor) was greater than 30 µM throughout.
